Biological target: MAPK14 (human) (UniProt Q16539)
Test: Inhibition of MAPK14 Kinase Activity

Sequence of MAPK14 (human) (Q16539 whole entry, looked up): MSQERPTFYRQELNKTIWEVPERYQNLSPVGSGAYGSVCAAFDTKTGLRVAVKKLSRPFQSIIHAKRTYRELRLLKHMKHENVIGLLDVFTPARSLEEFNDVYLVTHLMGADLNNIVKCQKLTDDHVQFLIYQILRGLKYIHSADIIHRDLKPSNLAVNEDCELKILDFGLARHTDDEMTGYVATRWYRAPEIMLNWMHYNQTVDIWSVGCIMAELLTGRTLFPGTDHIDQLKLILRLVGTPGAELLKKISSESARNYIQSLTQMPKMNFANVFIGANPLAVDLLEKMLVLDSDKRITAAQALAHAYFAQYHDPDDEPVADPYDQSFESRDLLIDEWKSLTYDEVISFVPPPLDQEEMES

Row | IC50 [nM] | SMILES
1 | ≤ 1000 | CC(C)NC(=O)c1csc(-c2oc(CNC(=O)C(Cc3ccc(O)cc3)NC(=O)OC(C)(C)C)nc2-c2ccc(F)cc2)n1 (centres undefined)
2 | ≤ 1000 | COc1ccccc1CCNC(=O)c1csc(-c2sc(C)nc2-c2ccc(F)cc2)n1
3 | ≤ 1000 | CCOc1ccccc1CNC(=O)c1csc(-c2sc(C)nc2-c2ccc(F)cc2)n1
4 | ≤ 1000 | CC(C)NC(=O)c1csc(-c2oc(CNC(=O)Cc3cccc(O)c3)nc2-c2ccc(F)cc2)n1
5 | ≤ 1000 | CC(C)NC(=O)c1csc(-c2oc(CN3CCN(C(=O)CC#N)CC3)nc2-c2ccc(F)cc2)n1
6 | ≤ 1000 | C#CCNC(=O)c1csc(-c2c(-c3ccc(F)cc3)ncn2C)n1
7 | ≤ 1000 | CC(C)NC(=O)c1csc(-c2oc(CNC(=O)CCc3nc4ccccc4[nH]3)nc2-c2ccc(F)cc2)n1
8 | ≤ 1000 | COc1ccc(OC)c(CCNC(=O)c2csc(-c3sc(C)nc3-c3ccc(F)cc3)n2)c1
9 | ≤ 1000 | CC(C)NC(=O)c1csc(-c2[nH]c(CO)nc2-c2ccc(F)cc2)n1
10 | ≤ 1000 | O=C(NC1CCCCC1)c1csc(-c2c(-c3ccc(F)cc3)ncn2C2CCNCC2)n1
11 | ≤ 1000 | CCN(CC)c1ccc(C(=O)NCc2nc(-c3ccc(F)cc3)c(-c3nc(C(=O)NC(C)C)cs3)o2)cc1
12 | ≤ 1000 | CC(C)NC(=O)c1csc(-c2oc(CNC(=O)c3cccc(C#N)c3)nc2-c2ccc(F)cc2)n1
13 | ≤ 1000 | Cc1nc(-c2ccc(F)cc2)c(-c2nc(C(=O)NCc3ccccc3C)cs2)s1
14 | ≤ 1000 | COc1ccc2cc(C(C)C(=O)NCc3nc(-c4ccc(F)cc4)c(-c4nc(C(=O)NC(C)C)cs4)o3)ccc2c1 (centres undefined)
15 | ≤ 1000 | Cc1nc(-c2ccc(F)cc2)c(-c2nc(C(=O)N[C@H](CO)Cc3ccccc3)cs2)s1
16 | ≤ 1000 | CCC(C)NC(=O)n1ccc(-c2c(-c3ccc(Cl)cc3)noc2C)n1 (centres undefined)
17 | ≤ 1000 | CC(C)NC(=O)c1csc(-c2c(-c3ccc(F)cc3)n[nH]c2C2CCN(C(=O)C3CC(O)CN3C(=O)OC(C)(C)C)CC2)n1 (centres undefined)
18 | ≤ 1000 | CCOC(=O)CC(=O)N1CCC(c2[nH]nc(-c3ccc(F)cc3)c2-c2nc(C(=O)NC(C)C)cs2)CC1
19 | ≤ 1000 | CC(C)NC(=O)c1csc(-c2oc(CN3CCN(C(=O)c4ccc(Oc5ccccc5)cc4)CC3)nc2-c2ccc(F)cc2)n1
20 | ≤ 1000 | COc1cccc(CNC(=O)c2csc(-c3sc(C)nc3-c3ccc(F)cc3)n2)c1
21 | ≤ 1000 | Cc1nc(-c2ccc(F)cc2)c(-c2nc(C(=O)NCCCNC(=O)OC(C)(C)C)cs2)s1
22 | ≤ 1000 | COc1ccncc1NC(=O)c1csc(-c2sc(C)nc2-c2ccc(F)cc2)n1

Row | IC50 [nM] | SMILES
23 | ≤ 1000 | CC(=O)NC(Cc1ccc(O)cc1)C(=O)NCc1nc(-c2ccc(F)cc2)c(-c2nc(C(=O)NC(C)C)cs2)o1 (centres undefined)
24 | ≤ 1000 | CC(C)NC(=O)c1csc(-c2oc(CNC(=O)c3ccccc3C(F)(F)F)nc2-c2ccc(F)cc2)n1
25 | ≤ 1000 | CCC(=O)C(=O)NCc1nc(-c2ccc(F)cc2)c(-c2nc(C(=O)NC(C)C)cs2)o1
26 | ≤ 1000 | Cc1nc(-c2ccc(F)cc2)c(-c2nc(C(=O)NCc3cccc(C(F)(F)F)c3)cs2)s1
27 | ≤ 1000 | Cc1nc(-c2ccc(F)cc2)c(-c2nc(C(=O)NC3CCC(C)CC3)cs2)s1 (centres undefined)
28 | ≤ 1000 | CC(C)NC(=O)c1csc(-c2c(-c3ccc(F)cc3)n[nH]c2C2CCN(C(=O)Cc3ccccc3O)CC2)n1
29 | ≤ 1000 | Cc1[nH]nc(-c2ccc(F)cc2)c1-c1nc(C(=O)NCc2ccccn2)cs1
30 | ≤ 1000 | CC(C)NC(=O)c1csc(-c2c(-c3ccc(F)cc3)noc2CN2CCNCC2)n1
31 | ≤ 1000 | CC(C)NC(=O)c1csc(-c2oc(CN3CCN(C(=O)c4cccc(Cl)c4[N+](=O)[O-])CC3)nc2-c2ccc(F)cc2)n1
32 | ≤ 1000 | Cc1nc(-c2ccc(F)cc2)c(-c2nc(C(=O)Nc3cnc4ccccc4c3)cs2)s1
33 | ≤ 1000 | CCCC(C)NC(=O)c1csc(-c2c(-c3ccc(F)cc3)n[nH]c2C2CCNCC2)n1 (centres undefined)
34 | ≤ 1000 | Cc1nc(-c2ccc(F)cc2)c(-c2nc(C(=O)N[C@@H](C)c3ccccc3)cs2)s1
35 | ≤ 1000 | CC(C)NC(=O)c1csc(-c2c(-c3ccc(F)cc3)noc2CNCCCN2CCCC2=O)n1
36 | ≤ 1000 | CCN(CC)CCNC(=O)c1csc(-c2sc(C)nc2-c2ccc(F)cc2)n1
37 | ≤ 1000 | CC(C)NC(=O)c1csc(-c2oc(CN3CCN(C(=O)c4cc(F)c(F)cc4[N+](=O)[O-])CC3)nc2-c2ccc(F)cc2)n1
38 | ≤ 1000 | CC(=O)N1CCC(c2[nH]nc(-c3ccc(F)cc3)c2-c2nc(C(=O)NC(C)C)cs2)CC1
39 | ≤ 1000 | COc1cc(C(=O)N2CCN(Cc3nc(-c4ccc(F)cc4)c(-c4nc(C(=O)NC(C)C)cs4)o3)CC2)cc(OC)c1O
40 | ≤ 1000 | CC(C)NC(=O)c1csc(-c2c(-c3ccc(F)cc3)noc2CN)n1
41 | ≤ 1000 | CC(C)NC(=O)c1csc(-c2c(-c3ccc(F)cc3)noc2CNC(=O)CC#N)n1
42 | ≤ 1000 | CC(C)NC(=O)c1csc(-c2oc(CN3CCN(C(=O)C4CCCN4C(=O)OC(C)(C)C)CC3)nc2-c2ccc(F)cc2)n1 (centres undefined)
43 | ≤ 1000 | CC(C)NC(=O)c1csc(-c2oc(CNC(=O)c3ccc(C(F)(F)F)cc3[N+](=O)[O-])nc2-c2ccc(F)cc2)n1
44 | ≤ 1000 | CC(C)NC(=O)c1csc(-c2c(-c3ccc(F)cc3)noc2C2CCN(C(=O)CO)CC2)n1

Row | IC50 [nM] | SMILES
45 | ≤ 1000 | COc1ccc(CCNC(=O)c2csc(-c3sc(C)nc3-c3ccc(F)cc3)n2)cc1
46 | ≤ 1000 | COc1cc(C(=O)NCc2nc(-c3ccc(F)cc3)c(-c3nc(C(=O)NC(C)C)cs3)o2)cc(OC)c1O
47 | ≤ 1000 | CC(C)NC(=O)c1csc(-c2c(-c3ccc(F)cc3)n[nH]c2C2CCN(C(=O)C(C)(C)C)CC2)n1
48 | ≤ 1000 | CC(C)NC(=O)c1csc(-c2c(-c3ccc(F)cc3)n[nH]c2C2CCN(C(=O)c3cc(Cl)ccn3)CC2)n1
49 | ≤ 1000 | CC(C)NC(=O)c1csc(-c2c(-c3ccc(F)cc3)n[nH]c2C2CCN(C(=O)c3ccncc3)CC2)n1
50 | ≤ 1000 | Cc1nc(-c2ccc(F)cc2)c(-c2nc(C(=O)NCCc3ccc(O)cc3)cs2)s1
51 | ≤ 1000 | Cc1nc(-c2ccc(F)cc2)c(-c2nc(C(=O)N3CCN(c4ccccc4C#N)CC3)cs2)s1
52 | ≤ 1000 | Cc1nc(-c2ccc(F)cc2)c(-c2nc(C(=O)NCc3ccc4c(c3)OCO4)cs2)s1
53 | ≤ 1000 | COCC(=O)N1CCC(c2[nH]nc(-c3ccc(F)cc3)c2-c2nc(C(=O)NC(C)C)cs2)CC1
54 | ≤ 1000 | Cc1nc(-c2ccc(F)cc2)c(-c2nc(C(=O)NC(C)C)cs2)o1
55 | ≤ 1000 | CC(C)NC(=O)c1csc(-c2oc(CN3CCN(C(=O)c4cnc[nH]4)CC3)nc2-c2ccc(F)cc2)n1
56 | ≤ 1000 | CCCCOc1ccc(C(=O)N2CCC(c3[nH]nc(-c4ccc(F)cc4)c3-c3nc(C(=O)NC(C)C)cs3)CC2)cc1
57 | ≤ 1000 | CC(C)NC(=O)c1csc(-c2oc(CNC(=O)c3cc(F)c(F)cc3[N+](=O)[O-])nc2-c2ccc(F)cc2)n1
58 | ≤ 1000 | CC(=O)NCc1nc(-c2ccc(F)cc2)c(-c2nc(C(=O)NC(C)C)cs2)[nH]1
59 | ≤ 1000 | C#CCNC(=O)c1csc(-c2c(-c3ccc(F)cc3)n[nH]c2C)n1
60 | ≤ 1000 | Cc1cnc(CNC(=O)c2csc(-c3sc(C)nc3-c3ccc(F)cc3)n2)cn1
61 | ≤ 1000 | CC(C)NC(=O)c1csc(-c2c(-c3ccc(F)cc3)n[nH]c2C2CCN(C(=O)c3cccc4ccccc34)CC2)n1
62 | ≤ 1000 | CC(C)NC(=O)c1csc(-c2oc(CN3CCN(C(=O)c4ncc[nH]4)CC3)nc2-c2ccc(F)cc2)n1
63 | ≤ 1000 | Cc1nc(-c2ccc(F)cc2)c(-c2nc(C(=O)N3CCCC4CCCCC43)cs2)s1 (centres undefined)
64 | ≤ 1000 | O=C(NCCCO)c1csc(-c2c(-c3ccc(F)cc3)n[nH]c2C2CCNCC2)n1
65 | ≤ 1000 | CC(C)NC(=O)c1csc(-c2oc(CNC(=O)c3ccncc3)nc2-c2ccc(F)cc2)n1
66 | ≤ 1000 | CC(C)NC(=O)c1csc(-c2oc(CNC(=O)C=Cc3ccccc3O)nc2-c2ccc(F)cc2)n1

Row | IC50 [nM] | SMILES
67 | ≤ 1000 | Cc1cccc(N2CCN(C(=O)c3csc(-c4sc(C)nc4-c4ccc(F)cc4)n3)CC2C)c1 (centres undefined)
68 | ≤ 1000 | CC(C)NC(=O)c1csc(-c2oc(CNC(=O)c3cccc(O)c3)nc2-c2ccc(F)cc2)n1
69 | ≤ 1000 | C#CCNC(=O)c1csc(-c2c(-c3ccc(F)cc3)n[nH]c2C2CCN(C(=O)CO)CC2)n1
70 | ≤ 1000 | O=C(NCc1ccncc1)c1csc(-c2c(-c3ccc(F)cc3)n[nH]c2C2CCNCC2)n1
71 | ≤ 1000 | CC(C)NC(=O)c1csc(-c2oc(CNC(=O)C(C)O)nc2-c2ccc(F)cc2)n1 (centres undefined)
72 | ≤ 1000 | Cc1nc(-c2ccc(F)cc2)c(-c2nc(C(=O)NCc3ccccc3F)cs2)s1
73 | ≤ 1000 | COc1cc(C(=O)NCc2nc(-c3ccc(F)cc3)c(-c3nc(C(=O)NC(C)C)cs3)o2)c([N+](=O)[O-])cc1OC
74 | ≤ 1000 | CC(C)NC(=O)c1csc(-c2oc(CNC(=O)C=Cc3ccc(Cl)cc3)nc2-c2ccc(F)cc2)n1
75 | ≤ 1000 | Cc1nc(-c2ccc(F)cc2)c(-c2nc(C(=O)NCc3ccc(Cl)cc3Cl)cs2)s1
76 | ≤ 1000 | Cc1[nH]nc(-c2ccc(F)cc2)c1-c1nc(C(=O)NCc2ccc3c(c2)OCO3)cs1
77 | ≤ 1000 | CC(=O)c1ccc(C(=O)NCc2nc(-c3ccc(F)cc3)c(-c3nc(C(=O)NC(C)C)cs3)o2)cc1
78 | ≤ 1000 | CC(C)NC(=O)c1csc(-c2oc(CN3CCN(C(=O)C(Cl)(Cl)Cl)CC3)nc2-c2ccc(F)cc2)n1
79 | ≤ 1000 | C#CCNC(=O)c1csc(-c2c(-c3ccc(F)cc3)ncn2C2CCNCC2)n1
80 | ≤ 1000 | CC(C)NC(=O)c1csc(-c2oc(CNC(=O)c3cc(Cl)ccc3[N+](=O)[O-])nc2-c2ccc(F)cc2)n1
81 | ≤ 1000 | CC(=O)Oc1cccc(C(=O)N2CCN(Cc3nc(-c4ccc(F)cc4)c(-c4nc(C(=O)NC(C)C)cs4)o3)CC2)c1
82 | ≤ 1000 | CC(C)NC(=O)c1csc(-c2oc(CNC(=O)c3c(Cl)cc(Cl)cc3Cl)nc2-c2ccc(F)cc2)n1
83 | ≤ 1000 | Cc1onc(-c2ccc(F)cc2)c1-c1ccn(C(=O)NC(C)C)n1
84 | ≤ 1000 | COc1ccc(C(=O)N2CCN(Cc3nc(-c4ccc(F)cc4)c(-c4nc(C(=O)NC(C)C)cs4)o3)CC2)c(OC)c1
85 | ≤ 1000 | CC(C)NC(=O)c1csc(-c2oc(CNC(=O)Cc3c(F)cccc3F)nc2-c2ccc(F)cc2)n1
86 | ≤ 1000 | CC(=O)c1cccc(NC(=O)c2csc(-c3sc(C)nc3-c3ccc(F)cc3)n2)c1
87 | ≤ 1000 | Cc1onc(-c2ccc(Cl)cc2)c1-c1ccn(C(=O)NC2CCCC2)n1
88 | ≤ 1000 | O=C(NC1CC1)c1csc(-c2c(-c3ccc(F)cc3)n[nH]c2C2CCNCC2)n1

Row | SMILES | IC50 [nM]
89 | CC(C)NC(=O)c1csc(-c2oc(CN3CCN(C(=O)Cc4ccccc4O)CC3)nc2-c2ccc(F)cc2)n1 | ≤ 1000
